Assays:
[1] = system: FB1 Hydrolase activity; test: Effect of various treatments on modification of FB1 by E. spinifera esterase (culture filtrates); format: biochemical, Exophiala spinifera; design: key: − = no hydrolysis; ± = trace amount of hydrolysis; + = incomplete hydrolysis; ++ = incomplete hydrolysis; +++ = complete hydrolysis; settings: then incubated with FB1 overnight at 37° C.
Method: (§1) Analytical thin-layer chromatography was carried out on 100% silanized C18 silica plates (Sigma #T-7020; 10×10 cm; 0.1 mm thick) by a modification of the published method of Rottinghaus (Rottinghaus, G. E., Coatney, C. E., and Minor, H. C., A rapid, sensitive thin layer chromatography procedure for the detection of fumonisin b-1 and b-2, J Vet Diagn Invest, 4, 326 (1992), and herein incorporated by reference).
(§2) Sample lanes were pre-wet with methanol to facilitate sample application. After application of from 0.1 to 2 μl of aqueous sample, the plates were air-dried and developed in MeOH:4% KCl (3:2) or MeOH:0.2 M KOH (3:2) and then sprayed successively with 0.1 M sodium borate (pH 9.5) and fluorescamine (0.4 mg/ml in acetonitrile). Plates were air-dried and viewed under long wave UV.
The esterase isolated from E. spinifera was then subjected to other treatments, including proteases, to determine whether and how the enzyme would function in various environments.

[2] = system: AP1 catabolase; test: AP1 catabolase activity: modification of amine-containing substrates by crude cell-free extract; format: biochemical, Exophiala spinifera; settings: for modification by the crude extract (catabolase): cell-free extract of substrate-induced Exophiala spinifera, TLC on C18 silica
Method: A cell-free extract that contains the catabolase activity was obtained by subjecting substrate-induced Exophiala spinifera cells to disruption using a bead beater in sodium acetate buffer, pH 5.2, and recovering the cell-free supernatant by centrifugation and 0.45 micron filtration. Catabolic activity is assayed by incubating extracts with AP1 (hydrolyzed fumonisin B1 backbone) or 14C-labelled AP1 with the extract and evaluating by TLC on C18 silica. The product AP1-N1 has a lower Rf than AP1 and is detected either by radiolabel scan or by H2SO4 spray/charring of the TLC plate. […] Other amine-containing substrates were tested for modification by the crude extract.

[3] = system: maize tissue cultured cells (Black Mexican Sweet, BMS); settings: for concentration at which growth of BMS cells was inhibited: liquid culture, 96-well plates, 1 week, cell density versus water control
[4] = system: maize callus; settings: solid medium; Van Asch et al. 1992; cited from earlier work
[5] = system: maize coleoptiles; test: Effect of FB1 and AP1 on maize coleoptiles; design: key to Injury of maize coleoptiles: + = brown necrotic discoloration of coleoptile; − = no symptoms (same as water control); settings: for Injury of maize coleoptiles: 2 days dark at 28° C. then 3 days light
Method: Maize coleoptiles from 4 day dark-grown germinated maize seeds were excised above the growing point and placed in 96-well microtiter plates in the presence of 60 microliters of sterile distilled water containing FB1 or AP1 at approximately equimolar concentrations of 1.5, 0.5, 0.15, 0.05, 0.015, 0.005, 0.0015, or 0.0005 millimolar, along with water controls. After 2 days in the dark at 28° C. the coleoptiles were placed in the light and incubated another 3 days.

[6] = system: Lemna tissues; settings: Vesonder et al. 1992; cited from earlier work
[7] = system: tomato; settings: Lamprecht et al. 1994; cited from earlier work
[8] = Hydrolysis of fumonisin B1 by commercial esterases and hydrolases; format: biochemical; design: key: − = no hydrolysis; ± = trace amount of hydrolysis; + = incomplete hydrolysis; ++ = incomplete hydrolysis; +++ = complete hydrolysis; settings: assay pH 8.0; overnight at 37° C. with 1 mg/ml fumonisin
Method: as §1, §2
The fumonisin esterase isolated from E. spinifera and R. atrovirens was compared with other known esterases from various sources as supplied by commercial vendors.

[9] = treatment 0.01 mg/ml, 16 hr, 37° C., pH 5.2

O[C@@H](CS)[C@@H](O)CS [DTT]
FB1 Hydrolase activity ([1]; treatment 25 mM): +++

CCCC[C@@H](C)[C@@H](OC(=O)C[C@@H](CC(=O)O)C(=O)O)[C@H](C[C@@H](C)C[C@H](O)CCCC[C@@H](O)C[C@H](O)[C@H](C)N)OC(=O)C[C@@H](CC(=O)O)C(=O)O [FB1, Fumonisin B1]
modification by the crude extract (catabolase) [2]: not modified | concentration at which growth of BMS cells was inhibited [3]: 400 nM | concentration giving significant inhibition of maize callus [4]: 1400 nM | Injury of maize coleoptiles ([5]; 1.5 mM): + | Injury of maize coleoptiles ([5]; .0005 mM): − | Injury of maize coleoptiles ([5]; .0015 mM): − | Injury of maize coleoptiles ([5]; .005 mM): − | Injury of maize coleoptiles ([5]; .05 mM): + | Injury of maize coleoptiles ([5]; .15 mM): + | Injury of maize coleoptiles ([5]; .5 mM): +

O=C(O)CN(CCN(CC(=O)O)CC(=O)O)CC(=O)O [EDTA]
FB1 Hydrolase activity ([1]; treatment 50 mM): ++

CCCC[C@@H](C)[C@@H](O)[C@@H](O)C[C@@H](C)C[C@H](O)CCCC[C@@H](O)C[C@H](O)[C@H](C)N [AP1]
time to complete conversion to AP1-N1 ([2]; pH 9): 30 min | AP1 less toxic (than FB1) in Lemna tissues [6]: approx. 40 fold | difference in toxicity (FB1 versus AP1) to maize tissue cultured cells [3]: ~100 fold | concentration at which growth of BMS cells was inhibited [3]: 40000 nM | reduction in toxicity to tomato by AP1 versus FB1 [7]: ~100 fold | Injury of maize coleoptiles ([5]; 1.5 mM): + | Injury of maize coleoptiles ([5]; .0005 mM): − | Injury of maize coleoptiles ([5]; .0015 mM): − | Injury of maize coleoptiles ([5]; .005 mM): − | Injury of maize coleoptiles ([5]; .015 mM): − | Injury of maize coleoptiles ([5]; .05 mM): − | Injury of maize coleoptiles ([5]; .15 mM): − | Injury of maize coleoptiles ([5]; .5 mM): − | difference in toxicity between FB1 and AP1 to maize coleoptiles ([5]; AP1 less toxic than FB1): ≥ 30 fold

CCCCCCCCCCCCCC[C@@H](O)[C@@H](O)[C@@H](N)CO [Phytosphingosine]
modification by the crude extract (catabolase) [2]: apparently not modified

CCCCCCCCCCCCC/C=C/[C@@H](O)[C@@H](N)CO [Sphingosine]
modification by the crude extract (catabolase) [2]: apparently not modified

Trypsin
FB1 Hydrolase activity [1, 9]: +++

O=S(=O)(F)Cc1ccccc1 [PMSF, Phenylmethyl sulfonyl fluoride]
FB1 Hydrolase activity ([1]; treatment 10 mM): +++

Chymotrypsin
FB1 Hydrolase activity [1, 9]: ++

[Ca+2] [Ca^++]
FB1 Hydrolase activity ([1]; treatment 50 mM): +++

CCCCCCCCCCCCCCC[C@@H](O)[C@@H](N)CO [sphinganine]
modification by the crude extract (catabolase) [2]: apparently not modified

[Mg+2] [Mg^++]
FB1 Hydrolase activity ([1]; treatment 50 mM): +++

Cholinesterase, butyryl: EC 3.1.1.8, Horse serum, highly purified
FB1 hydrolysis [8]: −

— patent US6670189B2, “Fumonisin detoxification compositions and methods” (priority 1994, dated 2003)
